Source: patent US20250302990A1, “ENHANCING NON-VIRAL DNA DELIVERY AND EXPRESSION” (Spark Therapeutics, Inc., priority 2022, published 2025)

Tests used:
[1] = test system: Wild type mice; assay: Survival after hFIX DNA-LNP dosing, with or without oral JAK inhibitors (Example 3); format: in vivo, mouse; conditions: 30 minutes prior to and days 1, 2, 3 post 2.5 mpk hFIX DNA-LNP (bCKK-E12 LNP), followed out to 30 days, vs untreated
Method: FIG. 6 illustrates survival of WT mice dosed systemically with 2.5 mpk (50 μg) of human factor IX (hFIX) transgene-encoding plasmid DNA encapsulated in lipid nanoparticles; and either untreated or treated with ruxolitinib or baricitinib orally 30 minutes prior to, and on days 1, 2, and 3 post systemic dosing with hFIX transgene encoding plasmid DNA encapsulated in lipid nanoparticles.
Wild type mice were untreated, or treated (n=5 per group) with JAK inhibitors ruxolitinib or baricitinib orally 30 minutes prior to, and days 1, 2, and 3 post systemic dosing with 2.5 mpk (50 μg) of human factor IX (hFIX) transgene-encoding plasmid DNA encapsulated in lipid nanoparticles (DNA-LNP). The LNP used in the study was formulated with bCKK-E12. Survival of mice in each group was followed out to 30 days (FIG. 6).

[2] = test system: Wild type C57BL/6 mice; assay: Transgenic hFIX protein in blood plasma by ELISA one week post-DNA-LNP, anti-IFNAR and/or baricitinib (Example 4); format: in vivo, mouse; conditions: 2.5 mpk hFIX DNA-LNP (bCKK-E12) IV; anti-IFNAR 15 mpk IP 3 hours prior; baricitinib oral 90 minutes prior and daily days 1-6; one week post-dosing
Method: FIG. 7 illustrates FIX protein levels in blood plasma of mice not treated; or treated orally with baricitinib (“Bar”) 90 minutes prior to DNA-LNP dosing, and then daily on days 1-6 post-DNA-LNP dosing. Transgenic hFIX protein in blood plasma of surviving mice was measured by ELISA one-week post-DNA-LNP dosing.
Wild type C57BL/6 mice were untreated, or treated (n=5 per group) once IP with 15 mpk anti-mouse IFNAR blocking antibody (“anti-IFNAR”; clone MAR1-5A3, described in Dunn et al., Nat Immunol. 2005 July; 6(7):722-9) 3 hours prior to systemically (IV tail injections) dosing with 2.5 mpk (50 μg) of human factor IX (hFIX) transgene-encoding plasmid DNA encapsulated in lipid nanoparticles (DNA-LNP). The LNP used in the study was formulated with bCKK-E12. Mice were treated or not treated with the oral JAK inhibitor baricitinib (“Bar”) 90 minutes prior to DNA-LNP dosing, and then daily on days 1-6 post-DNA-LNP dosing. Transgenic hFIX protein in blood plasma of surviving mice was measured by ELISA one-week post-DNA-LNP dosing (FIG. 7).

| Compound | survival of mice dosed with DNA-LNP [1] | DNA-LNP transgene efficacy (hFIX protein in blood plasma, ELISA) [2] |
| --- | --- | --- |
| N#CC[C@H](C1CCCC1)n1cc(-c2[nH]cnc3nccc2-3)cn1 [Ruxolitinib] | dramatically improved survival | – |
| Baricitinib | dramatically improved survival | did not boost transgene efficacy |
